Laboratory results as given in patent US20240076624A1, “Methods and Tools for Studying Enteroendocrine Cells” (Koninklijke Nederlandse Akademie Van Wetenschappen, priority 2020, published 2024).
Values belong to the molecule of their own block, whether it stands above or below them.

Key:
[1] = molecular target: T1, OR51E2 (Homo sapiens, UniProt Q9H255); conditions: HEK cells after overexpression of OR51E2 (Pietraszewska-Bogiel et al., 2019); cited from earlier work
T1 construct: endogenous in cells; host or cells: human intestinal organoids NEUROG3-dTomato / TPH1-mClover carrying the Tq-Ca-FLITS calcium sensor, differentiated to EECs
T1 sequence (Q9H255 1-320): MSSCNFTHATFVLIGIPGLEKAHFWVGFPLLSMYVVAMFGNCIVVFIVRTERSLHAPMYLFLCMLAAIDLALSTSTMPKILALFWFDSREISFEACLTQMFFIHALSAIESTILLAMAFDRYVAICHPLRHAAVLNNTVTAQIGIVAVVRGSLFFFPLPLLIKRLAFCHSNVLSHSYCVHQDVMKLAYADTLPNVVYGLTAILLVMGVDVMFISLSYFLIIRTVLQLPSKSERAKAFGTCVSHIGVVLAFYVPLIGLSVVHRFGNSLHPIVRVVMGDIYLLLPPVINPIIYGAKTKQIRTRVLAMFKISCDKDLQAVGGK

[2] = molecular target: T1, OR51E2; assay: Calcium sensor (Tq-Ca-FLITS) response in TPH1-mClover NEUROG3-dTomato organoid; assay type: cell-based; conditions: for calcium flux in EECs (TPH1-negative): colon-derived reporter organoid
Excerpt: (F) Fluorescent image of a TPH1^mClover NEUROG3^dTomato organoid that is transduced with the turquoise calcium sensor Tq-Ca-FLITS, containing a nuclear localization signal. Five examples of nuclei are highlighted of which the calcium response is followed after treatment with Beta-ionone, the agonist of OR51E2.
For example, in some embodiments, the compound is beta-ionone and the sensor is a calcium sensor. Beta-ionone is an agonist of the olfactory receptor OR51E2. The mouse homologue of OR51E2 had been reported to be expressed in mouse EECs (Fleischer et al., 2015; Jovancevic et al., 2017). However, prior to the invention, it was not known which human EECs OR51E2 is expressed in. Olfactory genes in humans and mice are very different as these genes quickly evolve. Therefore, the homology of these sequences tend to be low, and it is difficult to project expression profiles of mouse olfactory genes on humans. The inventors have found two olfactory receptors that are abundantly expressed in human EECs, OR51E1 and OR51E2. […] This provided proof-of-concept that sensors combined with hormone reporters from EEC-TAG can aid the study of functional signalling responses in human EEC subtypes. Thus, calcium reporters can be combined as a measure of hormone activation with the knowledge of the expression levels of targets such as olfactory receptors in subpopulations of EECs. Thus, the use of a reporter organoid in conjunction with a calcium reporter allows for screening for activators of targets such as cell surface receptors, e.g. olfactory receptors, and such methods are provided herein. In some embodiments, the calcium assay is conducted in an intestinal organoid which is not itself a reporter organoid and a reporter organoid is used to validate which EEC subtype the calcium is being activated in and so which hormones are being activated. […] This can be extrapolated to which EEC subtype hormone secretion is being activated in.

[3] = molecular target: T2, olfactory receptor OR51E2 (Homo sapiens, UniProt Q9H255); assay: Live cell imaging of calcium reporter (Tq-Ca-FLITS) organoids; assay type: cell-based; conditions: NEUROG3-dTomato TPH1-mClover CaFLITS-Turquoise reporter organoids; FIG. 2F
T2 construct: endogenous in cells; host or cells: human intestinal organoids NEUROG3-dTomato / TPH1-mClover carrying the Tq-Ca-FLITS calcium sensor, differentiated to EECs
T2 sequence (Q9H255 1-320): T1 sequence (Q9H255 1-320)
Protocol: A red calcium probe (pTorPE-R-GECO1, addgene plasmid #32465) was used as a template to engineer a cyan genetically encoded calcium probe. The cpApple was replaced with a circular permuted mTurquoise. The resulting probe was dubbed Tq-Ca-FLITS (Turquoise Calcium Fluorescence Lifetime Indicator for Truthful Sensing). A triple nuclear localization signal (3×nls) was added to the N-terminus of the calcium probe to simplify analysis. Details of the engineering and characterization will be described elsewhere (Van der Linden et al., in preparation).
PCRs were performed on Tq-Ca-FLITS (Fw […]atgggatcagatccaaaaaagaagag, Rev […]c[…]) as well as H2B-mMaroon (Fw […], Rev […]attaagtttgtgcccc) and the two PCRs were cloned into a lentiviral vector using InPhusion Cloning (Takara), to produce H2B-mMaroon-P2A-Tq-Ca-FLITS, two simultaneously expressed cistrons separated by a de-optimized P2A (Lo et al., 2015).
H2B-mMaroon-P2A-Tq-Ca-FLITS organoids were imaged on a Leica SP8 confocal laser scanning microscope, equipped with Argon laser and White Light Laser, the latter allowing spectral flexibility for optimal visualization of all fluorophores. […]

[4] = system: MLK-7K; conditions: target MLK-7K; cited from earlier work
[5] = system: enteroendocrine cell differentiated organoids; assay: Hormone expression in EEC differentiated organoids treated with Midkine; assay type: cell-based, human

calcium flux in non-EEC [2]: does not show calcium increases
calcium flux in EECs (TPH1-negative) [2]: increases in calcium flux
calcium flux in EECs (TPH1-negative) ([2]; listed as beta-ionone): calcium sparking
Molecule: CC(=O)/C=C/C1=C(C)CCCC1(C)C [Beta-ionone]
calcium response [1]: elicit a calcium response
calcium reporter response in EECs [3]: calcium sparking in EECs that were TPH1-negative

Molecule: c1ccc(-c2n[nH]cc2-c2ccnc3ccccc23)nc1 [LY-36494, 4-[3-(2-Pyridinyl)-1H-pyrazol-4-yl]-quinoline]
IC50 [4]: 1400 nM

B1: Midkine: heparin-binding growth factor, cytokine; sequence SEQ ID NO:69 (protein, listed as Homo sapiens)
chain: VAKKKDKVKKGGPGSECAEWAWGPCTPSSKDCGVGFREGTCGAQTQRIRCRVPCNWKKEFGADCKYKFENWGACDGGTGTKVRQGTLKKARYNAQCQETIRVTKPCTPKTKAKAKAKKGKGKD
expression of EEC hormones [5]: reduces the expression of all hormones
